Results taken from US20090257988A1, “METHODS AND COMPOSITIONS FOR ACCELERATING THE GENERATION OF REGULATORY T CELLS EX VIVO” (USC Stevens, Hughes Center, priority 2008, published 2009).
Entries after “also recorded” stand apart in the source; their conditions may differ.

What was measured:
naïve CD4+ cells [1] = test: FOXP3 expression by flow cytometry in naïve CD4+ cells stimulated with anti-CD3/CD28 beads; assay type: cell-based, human
Excerpt: FIG. 1 is a typical example of FOXP3 expression at day 6 of cultures of non-regulatory T cells. In the experiments represented in this figure, naïve CD4+ cells were stimulated with 3/28 beads (1 bead per 10 T cells) with (right panel) or without (left panel) TGF-β for 6 days.
This inhibitor blocks TGF-β type I receptor signaling. The figures in FIG. 2A provide data from flow cytometry analysis of stimulated CD4+ cells. Naïve CD4+ cells were stimulated with anti-CD3/CD28 beads for 5 or 6 days in medium only (left-most panel), in the presence of 5 ng/ml TGF-β (middle panel) or with 1 μM azacytidine (right-most panel). The graphs also show data from cells stimulated with and without ALK5i (10 μM).
FIG. 3A provides flow cytometry data from naïve CD4 cells stimulated with anti-CD3/CD28 beads for 5 or 6 days in (in order of the panels from left to right) medium alone, in medium containing TGF-β, in medium containing azacytidine, and in medium containing azacytidine and TGF-β. The arrows indicate the […] after stimulation with anti-CD3/anti-CD28.
Naïve CD4+ cells were stimulated with anti-CD3/28 beads as described above. […] FOXP3 expression among CD4+CD25+ cells was determined by flow cytometry. FIG. 5A is a bar graph showing the indicated mean±SEM for 5 independent experiments. FIG. 5B is representative of experiments in 0.1 μM ATRA.
The traces identified with arrows indicate data from cells expressing FOXP3 after stimulation, and percentage of FOXP3 expressing cells is indicated in each figure.

responder T cells = test: Suppressive activity of stimulated CD4+ cells on proliferation of CFSE-labeled responder T cells; assay type: cell-based, human; settings: FIG. 4; cells stimulated with vs without azacytidine; ratio 1:10 to responder cells, soluble anti-CD3, 3 days
Experimental: Each population of stimulated cells was assayed for suppressive activity by culturing the cells with responder T cells labeled with carbofluorescein diacetate succinimydil ester (CFSE) at a ratio of 1:10. The cells were stimulated with soluble anti-CD3 for 3 days and proliferation of the responder cells was measured by dilution of CFSE.
The induced Tregs were added to T respond cells (1:4 ratio) and suppressive activity was calculated.

CD4+ cells = test: Proliferation of cultured CD4+ cells upon re-stimulation; assay type: cell-based, human; settings: after 6 days of culture
Excerpt: A further phenotypic property of nTregs is poor proliferative responsiveness, which is often accompanied by lowered production of certain pro-proliferation cytokines, such as IL-2. Other cytokines, such as IL-4, IFNγ and TFN-α are also associated with proliferation, although they are generally produced in low levels even in proliferating cells. Proliferation response can be measured using methods known in the art, such as thymidine uptake assays and assays of carboxyfluorescein succinimidyl ester (CFSE) dilution.
As discussed above, one phenotypic property of nTregs is poor proliferative responsiveness. Human naïve CD4+ cells stimulated with IL-2 and TGF-β become FOXP3+, but are only partially differentiated suppressor cells. […] Since the only source of pro-proliferative cytokines are the iTregs themselves, the lack of proliferation by azacytidine-treated cells is consistent with poor cytokine production, which is a distinguishing characteristic of nTregs.

[2] = system: memory CD4+ cells (CD45RO+); test: Stimulation of memory CD4+ cells (CD45RO+) with or without azacytidine (Example 7); assay type: cell-based
Experimental: In addition to naïve CD4+ cells (also referred to as CD45RA+ cells), memory CD4+ cells (CD45RO+) are stimulated and assessed for the effect of azacytidine and azacytidine+retinoic acid on their phenotypic properties. These memory CD4+ cells represent a resting but previously activated population. The cells are stimulated with anti-CD3/anti-CD28 beads (at 1 in 10) with or without azacytidine (1 μM), azacytidine combined with all-trans retinoic acid and also with or without TGF-β (5 ng/ml). After 6 days, the cells are depleted of stimulating beads and assayed for FOXP3 expression, suppressor activity and proliferative activity. Greater than 50% of the stimulated cells express FOXP3. Enhanced FOXP3 expression in cells cultured in medium alone may be due to TGF-β provided by non-T cells in the culture.
Remaining cells are restimulated with anti-CD3/anti-CD28 (at 1 in 10) with or without fresh azacytidine and/or azacytidine plus retinoic acid, such that there is a group from each CD4+ subset that is exposed to azacytidine/azacytidine+retinoic acid for the first time. After a further 6 days, the cells are assayed again for FOXP3 expression, suppressor activity and proliferative activity.

naïve CD4+ cells [3] = test: Surface marker phenotype (CD45RO, CD103, CD127) of stimulated naïve CD4+ cells; assay type: cell-based, human; settings: FIG. 7; after 6 days of stimulation
Excerpt: Naïve T cells display the CD45RA+ marker and lack CD45RO. […] Finally, nTregs characteristically express the αEβ7 integrin (CD103) induced by TGF-β.

CD4+GFP-cells = test: FOXP3 induction in CD4+GFP- cells of GFP-FOXP3 mice (Example 10); assay type: cell-based; settings: CD4+GFP- cells sorted from GFP-FOXP3 mice
Experimental: This assessment utilizes mice engineered to express a GFP-FOXP3 fusion protein. CD4+GFP-cells isolated by cell sorting are stimulated in the presence or absence of regulatory compositions containing azacytidine and regulatory compositions containing azacytidine and retinoic acid. Stimulation is also tested with such regulatory compositions with and without TGF-β. […] Purified populations of FOXP3+ cells are isolated by cell sorting. As a positive control, nTregs are also sorted from fresh spleens and lymph nodes. Both iTregs and nTregs cells (5×10^6) are injected into congenic CD45.1-mice. For the azacytidine-generated iTreg there are enough cells to have three to four mice per group. There are at least two mice per group for the nTregs. In some experiments, nTregs are expanded in culture to obtain sufficient numbers of cells.

naïve CD4+ cells [4] = test: Membrane-bound TGF-β staining after re-stimulation of naïve CD4+ cells; assay type: cell-based, human; settings: FIG. 8; 6 days with agents, re-stimulated with anti-CD3/28 beads
Excerpt: Naïve CD4+ cells were stimulated with agents indicated for 6 days and re-stimulated with anti-CD3/28 beads and stained with fluorochrome-conjugated anti-TGF-β for membrane-bound TGF-β.

[5] = azacytidine 1 μM, after repeated stimulation

## 2′-Deoxy-5-azacytidine; 5-Aza-2′-deoxycytidine
naïve CD4+ cells [1]; FIG. 2A, anti-CD3/CD28 beads 5 or 6 days, 1 μM azacytidine, no exogenous TGF-β, vs medium only
  FOXP3 expression (percentage of FOXP3 positive cells): enhances FOXP3 expression to a similar extent as the enhancement seen with TGF-β; also recorded: markedly augments the percentage of FOXP3 positive cells
Responder T cells
  suppressive activity: significantly more suppressive; also recorded: develop suppressive activity
CD4+ cells
  proliferation upon re-stimulation: fail to proliferate upon re-stimulation
[2]; [5]
  FOXP3 expression vs total T cells stimulated without azacytidine: markedly greater
  suppressive activity vs total T cells stimulated without azacytidine: markedly greater

## CC1=C(/C=C/C(C)=C/C=C/C(C)=C/C(=O)O)C(C)(C)CCC1 [retinoic acid, all-trans retinoic acid]
naïve CD4+ cells [1]; FIG. 5, retinoic acid added to TGF-β and azacytidine, ATRA 0.1-0.5 μM, 4 days, CD4+CD25+ cells
  FOXP3 expression in stimulated CD4+ cells: enhances FOXP3 expression

## TGF-β
naïve CD4+ cells [1]; FIG. 1, 3/28 beads (1 bead per 10 T cells), 6 days, with vs without TGF-β
  cells which express FOXP3: twice as many cells which express FOXP3
naïve CD4+ cells [3]
  cells that acquired the CD45RO marker: 50%
CD4+GFP-cells
  FOXP3 expression: induces FOXP3 expression
naïve CD4+ cells [4]
  expression of membrane-bound TGF-β: some T cells primed with TGF-β now expressed this cytokine on their cell surface; also recorded: some T cells contacted with TGF-β prior to stimulation now expressed this cytokine on their cell surface
[2]; TGF-β 5 ng/ml, 6 days
  proliferation of stimulated cells: hyperproliferative and expand markedly
